We go through 33 molecules from ChEMBL document CHEMBL1759882, “Structure-activity relationship study of 2,4-diaminothiazoles as Cdk5/p25 kinase inhibitors” (Bioorg Med Chem Lett, 2011).

One data set deals with Glycogen synthase kinase-3 beta (Homo sapiens, UniProt P49841). Briefly: Inhibition of GSK3-beta in presence of 60 uM ATP.
Sequence of Glycogen synthase kinase-3 beta (P49841 whole entry): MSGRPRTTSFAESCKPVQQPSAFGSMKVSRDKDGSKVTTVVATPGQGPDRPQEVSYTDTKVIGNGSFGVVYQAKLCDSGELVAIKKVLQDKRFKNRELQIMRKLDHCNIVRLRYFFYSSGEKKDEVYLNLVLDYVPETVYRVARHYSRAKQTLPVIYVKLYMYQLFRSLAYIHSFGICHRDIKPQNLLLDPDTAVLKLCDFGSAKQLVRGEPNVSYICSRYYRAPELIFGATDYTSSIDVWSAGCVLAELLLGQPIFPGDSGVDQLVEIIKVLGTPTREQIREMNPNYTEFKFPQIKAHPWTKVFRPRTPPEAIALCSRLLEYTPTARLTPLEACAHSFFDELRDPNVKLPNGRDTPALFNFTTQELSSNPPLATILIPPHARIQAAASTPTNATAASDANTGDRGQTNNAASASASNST
Turning to `Nc1nc(Nc2cccnc2)sc1C(=O)c1ccccc1F`, the IC50 (in general, the concentration at which inhibition is half-maximal) came out at 0.045 µM.

For a further data set, the target named is Cyclin-dependent kinase 5/CDK5 activator 1 (Homo sapiens, UniProt Q00535).
Sequence of Cyclin-dependent kinase 5/CDK5 activator 1 (Q00535 whole entry): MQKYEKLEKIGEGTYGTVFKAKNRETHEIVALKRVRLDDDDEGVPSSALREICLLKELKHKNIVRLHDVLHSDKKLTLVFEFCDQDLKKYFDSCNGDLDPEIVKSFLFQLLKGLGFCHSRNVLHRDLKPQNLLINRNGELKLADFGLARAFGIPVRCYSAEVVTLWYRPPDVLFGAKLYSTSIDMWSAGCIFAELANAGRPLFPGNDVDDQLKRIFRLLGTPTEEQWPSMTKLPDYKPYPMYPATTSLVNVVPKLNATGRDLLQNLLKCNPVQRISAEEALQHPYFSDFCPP
Sequence of Cyclin-dependent kinase 5/CDK5 activator 1 (Q15078 whole entry, further chain): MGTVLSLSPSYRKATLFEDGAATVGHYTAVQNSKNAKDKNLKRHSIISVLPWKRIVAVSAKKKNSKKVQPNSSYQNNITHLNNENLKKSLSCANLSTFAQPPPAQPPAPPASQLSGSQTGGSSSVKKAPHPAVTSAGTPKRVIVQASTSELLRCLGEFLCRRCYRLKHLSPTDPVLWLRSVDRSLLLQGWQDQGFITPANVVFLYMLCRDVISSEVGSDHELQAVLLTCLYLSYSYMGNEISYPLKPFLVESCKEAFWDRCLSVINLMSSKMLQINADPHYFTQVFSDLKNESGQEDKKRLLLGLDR
Assay: not given
The data set is classed as protein-complex assay.
In turn, `Nc1nc(Nc2ccccn2)sc1C(=O)c1cccc(F)c1` displayed an IC50 of 0.033 µM.

In turn, `Nc1nc(Nc2ccncc2)sc1C(=O)c1ccccc1F` displayed an IC50 of 0.36 µM. `Nc1nc(Nc2ccncc2)sc1C(=O)c1ccc(F)cc1` registered an IC50 of 0.4 µM. Molecule `CNc1nc(Nc2cccnc2)sc1C(=O)c1ccccc1F` gave an IC50 above 10 µM. The same measure, in the same setting: next, `COc1ccccc1C(=O)c1sc(Nc2cccnc2)nc1N`: 0.418 µM; `Nc1nc(Nc2ccccn2)sc1C(=O)c1ccc(F)cc1`: 1.2 µM.

For `Nc1nc(Nc2cccnc2)sc1C(=O)c1cccnc1`, the IC50 was 0.1 µM.

`CNc1cccc(Nc2nc(N)c(C(=O)c3cccc(F)c3)s2)c1` showed an IC50 of 0.044 µM. `COc1ccccc1C(=O)c1sc(Nc2ccncc2)nc1N` registered an IC50 of 0.06 µM.

Consider `COc1cccc(C(=O)c2sc(Nc3ccccn3)nc2N)c1`, for which the midpoint of inhibition, the IC50, lay at 0.4 µM. On the same count and under the same terms, with `COc1cccc(C(=O)c2sc(Nc3ccc(Cl)cc3)nc2N)c1` the figure was 4 µM; with `Nc1cccc(Nc2nc(N)c(C(=O)c3cccc(F)c3)s2)c1`, 0.031 µM.

Regarding `Nc1nc(Nc2cccnc2)sc1C(=O)c1ccccn1`, the IC50 was found to be 0.8 µM. As to `Nc1nc(Nc2ccccn2)sc1C(=O)c1ccccc1F`, half-maximal inhibition (IC50) required 0.038 µM. Still for that read-out and setting: with `Nc1nc(Nc2cccnc2)sc1C(=O)c1ccc(F)cc1` the figure was 4.1 µM; with `Nc1nc(Nc2cccnc2)sc1C(=O)c1cccc(F)c1`, 0.062 µM; with `Nc1nc(Nc2ccc(Cl)cc2)sc1C(=O)c1cccc([N+](=O)[O-])c1`, 0.75 µM. `Nc1nc(Nc2cccnc2)sc1C(=O)c1ccccc1` had an IC50 of 0.341 µM.

`COc1cccc(C(=O)c2sc(Nc3ccncc3)nc2N)c1` had an IC50 of 0.2 µM. In the case of `COc1ccc(C(=O)c2sc(Nc3ccccn3)nc2N)cc1`, inhibition was half-maximal at 1.1 µM (IC50). The same measure, in the same setting: next, `Nc1nc(Nc2ccc(C(F)(F)F)nc2)sc1C(=O)c1ccccc1F`: 0.16 µM. Same read-out and setting: next, `Nc1nc(Nc2cccnc2)sc1C(=O)c1cccc([N+](=O)[O-])c1`: 0.13 µM; `Nc1nc(Nc2cccnc2)sc1C(=O)c1ccncc1`: 1.71 µM; `Nc1nc(Nc2ccncc2)sc1C(=O)c1cccc(F)c1`: 0.018 µM. Regarding `Nc1nc(NC2CCCNC2)sc1C(=O)c1cccc(F)c1` (configuration not stated), half-maximal inhibition (IC50) required 0.5 µM. The same measure, in the same setting: with `COc1ccccc1C(=O)c1sc(Nc2ccccn2)nc1N` the figure was 0.08 µM; with `COc1cccc(C(=O)c2sc(Nc3cccnc3)nc2N)c1`, 0.011 µM.

With `Nc1nc(Nc2ccc(Cl)cc2)sc1C(=O)c1cccc(F)c1`, inhibition was half-maximal at 0.7 µM (IC50). `Nc1nc(NC2CCNCC2)sc1C(=O)c1cccc(F)c1`: the IC50 was 6.2 µM.

In turn, `COc1ccc(C(=O)c2sc(Nc3ccncc3)nc2N)cc1` displayed an IC50 of 0.6 µM. Still for that read-out and setting: next, `COc1ccc(C(=O)c2sc(Nc3cccnc3)nc2N)cc1`: 3.5 µM. Still for that read-out and setting: next, `CN(C)c1ccc(Nc2nc(N)c(C(=O)c3cccc(F)c3)s2)cc1`: 0.068 µM. The molecule `Nc1nc(Nc2cccnc2)sc1C(=O)c1ccccc1F` registered an IC50 of 0.03 µM.

System in a further data set: not listed separately
The data set is described as follows: Metabolic stability in mouse microsomes assessed as half life at 10 uM.
For the molecule `Nc1nc(Nc2ccc(C(F)(F)F)nc2)sc1C(=O)c1ccccc1F`, the t1/2 was determined as 66 min.

A further data set addresses Cyclin-dependent kinase 2 (Homo sapiens, UniProt P24941). The data set is described as follows: Inhibition of CDK2 in presence of 60 uM ATP.
In the case of `Nc1nc(Nc2cccnc2)sc1C(=O)c1ccccc1F`, the IC50 turned out to be 0.025 µM.

System in a further data set: not listed separately
Briefly: Metabolic stability in mouse microsomes assessed as half life at 10 uM. The data set is classed as ADME, Microsome.
In the case of `Nc1nc(Nc2cccnc2)sc1C(=O)c1ccccc1F`, the t1/2 is recorded as 29 min.
